Test results published in US10173991B2, “Sulfone amide linked benzothiazole inhibitors of endothelial lipase” (BRISTOL-MYERS SQUIBB COMPANY, priority 2014, dated 2019).

biological target: Endothelial lipase (EL) (Homo sapiens (Human), UniProt Q9Y5X9); assay: Endothelial lipase (EL) enzymatic assay with fluorescent substrate A10070 in DMPG vesicles; assay type: biochemical
Summary of the method: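 EL from conditioned medium of HT-1080 cells engineered to overexpress endogenous EL; HL partially purified from conditioned medium of HL-overexpressing COS cells. Enzyme preincubated with compound 30 min at 37° C in 50 mM HEPES pH 8.0, 50 mM NaCl, 1 mM CaCl2; DMPG vesicles carrying FRET substrate (0.11 mole fraction) then added.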

Chain of Endothelial lipase (EL) (Q9Y5X9 21-500): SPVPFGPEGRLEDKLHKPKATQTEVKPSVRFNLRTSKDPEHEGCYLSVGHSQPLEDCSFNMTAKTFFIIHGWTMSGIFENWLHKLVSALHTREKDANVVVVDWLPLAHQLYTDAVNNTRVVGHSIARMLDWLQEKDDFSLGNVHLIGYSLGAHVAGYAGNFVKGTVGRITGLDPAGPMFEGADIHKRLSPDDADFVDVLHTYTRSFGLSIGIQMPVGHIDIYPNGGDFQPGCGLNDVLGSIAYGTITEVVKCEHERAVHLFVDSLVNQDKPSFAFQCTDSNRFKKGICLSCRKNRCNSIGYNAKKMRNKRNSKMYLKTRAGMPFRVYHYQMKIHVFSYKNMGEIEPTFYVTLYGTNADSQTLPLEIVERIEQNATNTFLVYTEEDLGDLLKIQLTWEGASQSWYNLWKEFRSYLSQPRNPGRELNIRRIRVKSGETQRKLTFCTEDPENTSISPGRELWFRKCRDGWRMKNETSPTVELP

SMILES | IC50
COc1ccc(-c2ccc3nc(C(C(=O)NCC(=O)NC4CC4)S(=O)(=O)c4ccc(F)cc4)sc3c2)cn1 (stereo not drawn) [Example 456, N-[(cyclopropyl-carbamoyl)methyl]-2-(4-fluorobenzene-sulfonyl)-2-[6-(6-methoxypyridin-3-yl)-1,3-benzothiazol-2-yl]acetamide] | 109 nM
CS(=O)(=O)C(C(=O)NCC(=O)NC1CC1)c1nc2ccc(-c3ccc(F)nc3)cc2s1 (stereo not drawn) [Example 57, N-[(cyclopropyl-carbamoyl)methyl]-2-[6-(6-fluoropyridin-3-yl)-1,3-benzothiazol-2-yl]-2-methanesulfonyl-acetamide] | 47 nM
CC(C)S(=O)(=O)C(C(=O)NCC(=O)NC1CC1)c1nc2cc(-c3ccc(F)nc3)c(F)cc2s1 (stereo not drawn) [Example 263, N-[(cyclopropyl-carbamoyl)methyl]-2-[6-fluoro-5-(6-fluoropyridin-3-yl)-1,3-benzothiazol-2-yl]-2-(propane-2-sulfonyl)acetamide] | 13 nM
CC(C)n1cc(-c2cc(F)c3nc(C(C(=O)NCC(=O)NC4CC4)S(=O)(=O)c4ccc(F)cc4)sc3c2)ccc1=O (stereo not drawn) [Example 470, N-[(cyclopropyl-carbamoyl)methyl]-2-{4-fluoro-6-[6-oxo-1-(propan-2-yl)-1,6-dihydropyridin-3-yl]-1,3-benzothiazol-2-yl}-2-(4-fluorobenzene-sulfonyl)acetamide] | 16 nM
O=C(CNC(=O)C(c1nc2ccc(-c3cncnc3)cc2s1)S(=O)(=O)N1CCOCC1)NC1CC1 (stereo not drawn) [Example 481, N-[(cyclopropyl-carbamoyl)methyl]-2-(morpholine-4-sulfonyl)-2-[6-(pyrimidin-5-yl)-1,3-benzothiazol-2-yl]acetamide] | 99 nM
CS(=O)(=O)Nc1ccc(-c2cc3sc(C(C(=O)NCC(=O)NC4CC4)S(=O)(=O)CCC(F)(F)F)nc3cc2F)cc1 (stereo not drawn) [Example 43, N-[(cyclopropyl-carbamoyl)methyl]-2-[5-fluoro-6-(4-methanesulfon-amidophenyl)-1,3-benzothiazol-2-yl]-2-(3,3,3-trifluoropropane-sulfonyl) acetamide] | 37 nM
COCCS(=O)(=O)C(C(=O)NCC(=O)NC1CC1)c1nc2cc(-c3cccc(OC)c3)ccc2s1 (stereo not drawn) [Example 84, N-[(cyclopropyl-carbamoyl)methyl]-2-(2-methoxyethane-sulfonyl)-2-[5-(3-methoxyphenyl)-1,3-benzothiazol-2-yl]acetamide] | 82 nM
O=C(CNC(=O)C(c1nc2cc(F)c(-c3cncnc3)cc2s1)S(=O)(=O)c1ccccc1F)NC1CC1 (stereo not drawn) [Example 441, N-[(cyclopropyl-carbamoyl)methyl]-2-[5-fluoro-6-(pyrimidin-5-yl)-1,3-benzothiazol-2-yl]-2-(2-fluorobenzene-sulfonyl)acetamide] | 87 nM
COCCS(=O)(=O)C(C(=O)NCC(=O)NC1CC1)c1nc2c(F)cc(-c3cncnc3)cc2s1 (stereo not drawn) [Example 221, N-[(cyclopropyl-carbamoyl)methyl]-2-[4-fluoro-6-(pyrimidin-5-yl)-1,3-benzothiazol-2-yl]-2-(2-methoxyethane-sulfonyl) acetamide] | 61 nM
COCCS(=O)(=O)C(C(=O)NCC(=O)NC1CC1)c1nc2cc(-c3ccncc3F)ccc2s1 (stereo not drawn) [Example 73, N-[(cyclopropyl-carbamoyl)methyl]-2-[5-(3-fluoropyridin-4-yl)-1,3-benzothiazol-2-yl]-2-(2-methoxyethane-sulfonyl) acetamide] | 28 nM
CN(C)S(=O)(=O)C(C(=O)NCC(=O)NC1CC1)c1nc2c(F)cc(-c3ccc4cnn(C)c4c3)cc2s1 (stereo not drawn) [Example 494, N-[(cyclopropyl-carbamoyl)methyl]-2-(dimethyl-sulfamoyl)-2-[4-fluoro-6-(1-methyl-1H-indazol-6-yl)-1,3-benzothiazol-2-yl] acetamide] | 44 nM

Now those with a lower IC50, led by results:

IC50 | SMILES
12 nM | COCCNC(=O)c1cccc(-c2cc3sc(C(C(=O)NCC(=O)NC4CC4)S(=O)(=O)C(C)C)nc3cc2C)c1 (stereo not drawn) [Example 210, 3-[2-({[(cyclopropyl-carbamoyl)methyl]carbamoyl} (propane-2-sulfonyl)methyl)-5-methyl-1,3-benzothiazol-6-yl]-N-(2-methoxyethyl) benzamide]
8 nM | CN(C)S(=O)(=O)C(C(=O)NCC(=O)NC1CC1)c1nc2c(F)cc(-c3ccccc3)cc2s1 (stereo not drawn) [Example 501, N-[(cyclopropyl-carbamoyl)methyl]-2-(dimethyl-sulfamoyl)-2-(4-fluoro-6-phenyl-1,3-benzothiazol-2-yl)acetamide]
8 nM | CC(C)c1ccc(-c2cc3sc(C(C(=O)NCC(=O)NC4CC4)S(=O)(=O)C(C)C)nc3cc2F)cn1 (stereo not drawn) [Example 251, N-[(cyclopropyl-carbamoyl)methyl]-2-{5-fluoro-6-[6-(propan-2-yl)pyridin-3-yl]-1,3-benzothiazol-2-yl}-2-(propane-2-sulfonyl) acetamide]
8 nM | COCCS(=O)(=O)C(C(=O)NCC(=O)NC1CC1)c1nc2ccc(-c3ccc(C(=O)N4CC[C@H](OC)C4)cc3)cc2s1 (stereo partly drawn) [Example 403, N-[(cyclopropyl-carbamoyl)methyl]-2-(2-methoxyethane-sulfonyl)-2-(6-{4-[(3S)-3-methoxy-pyrrolidine-1-carbonyl]phenyl}-1,3-benzothiazol-2-yl)acetamide]
8 nM | COCCS(=O)(=O)C(C(=O)NCC(=O)NC1CC1)c1nc2ccc(-c3ccc(NC(C)=O)cc3)cc2s1 (stereo not drawn) [Example 98, N-[(cyclopropyl-carbamoyl)methyl]-2-[6-(4-acetamidophenyl)-1,3-benzothiazol-2-yl]-2-(2-methoxyethane-sulfonyl) acetamide]
7 nM | Cc1cc(-c2cc3nc(C(C(=O)NCC(=O)NC4CC4)S(=O)(=O)C(C)C)sc3cc2F)ccn1 (stereo not drawn) [Example 264, N-[(cyclopropyl-carbamoyl)methyl]-2-[6-fluoro-5-(2-methylpyridin-4-yl)-1,3-benzothiazol-2-yl]-2-(propane-2-sulfonyl)acetamide]
6 nM | CC(C)S(=O)(=O)C(C(=O)NCC(=O)NC1CC1)c1nc2cc(F)c(-c3ccc4[nH]c(=O)ccc4c3)cc2s1 (stereo not drawn) [Example 234, N-[(cyclopropyl-carbamoyl)methyl]-2-[5-fluoro-6-(2-oxo-1,2-dihydroquinolin-6-yl)-1,3-benzothiazol-2-yl]-2-(propane-2-sulfonyl) acetamide]
5 nM | COc1ncccc1-c1cc2sc(C(C(=O)NCC(=O)NC3CC3)S(C)(=O)=O)nc2cc1F (stereo not drawn) [Example 322, N-[(cyclopropyl-carbamoyl)methyl]-2-[5-fluoro-6-(2-methoxypyridin-3-yl)-1,3-benzothiazol-2-yl]-2-methanesulfonyl-acetamide]
5 nM | Cn1ccc2cc(-c3cc4sc(C(C(=O)NCC(=O)NC5CC5)S(C)(=O)=O)nc4cc3F)ccc2c1=O (stereo not drawn) [Example 193, N-[(cyclopropyl-carbamoyl)methyl]-2-[5-fluoro-6-(2-methyl-1-oxo-1,2-dihydro-isoquinolin-6-yl)-1,3-benzothiazol-2-yl]-2-methanesulfonyl-acetamide]
2 nM | CN(C)S(=O)(=O)C(C(=O)NCC(=O)NC1CC1)c1nc2c(F)cc(-c3ccc(NC(=O)OCc4ccccc4)cc3)cc2s1 (stereo not drawn) [Example 495, benzyl N-{4-[2-({[(cyclopropyl-carbamoyl)methyl]carbamoyl} (dimethyl-sulfamoyl)methyl)-4-fluoro-1,3-benzothiazol-6-yl]phenyl}carbamate]
